Experimental data from the METLIN SMRT retention time set (Domingo-Almenara et al. 2019).

Assay: gradient 5% acetonitrile 3 min, to 50% in 2 min, to 85% in 15 min, held 3 min, 100 µL/min
Conditions: column: Zorbax Extend-C18 2.1 x 50 mm; eluents: water / acetonitrile, 0.1% formic acid
Method in brief: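 Retention time was recorded from adduct peaks, which were picked computationally and each inspected manually. Pure standards ran in mixtures of ~100 molecules on HPLC coupled to a quadrupole time-of-flight mass spectrometer, in positive and negative ionization mode, through a Zorbax Extend-C18 column (2.1 × 50 mm, 1.8 μm) at 100 μL/min. Eluents were water and acetonitrile, each with 0.1% formic acid.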

Compound	RP-LC retention time
Cc1ccc2nc(-c3ccc(N(C)C)cc3)c(Nc3ccccc3C)n2c1	812 s
CCC(C)C(NC(=O)Cc1ccc(Cl)cc1)C(=O)Nc1nc2ccccc2[nH]1 (centres undefined)	785 s
Cc1ccc(CNC(=O)CCc2ccc3cc[nH]c3c2)cc1	879 s
CCOC(=O)c1ncoc1-c1ccccc1C(=O)NC(C)C	676 s
Cc1ccc(NC(=O)N2CC(c3nc(C)no3)C3(CCOCC3)C2)cc1 (centres undefined)	716 s
O=C(Cc1ccc(F)cc1)NCC#CCN1CCc2ccccc2C1	565 s
CC(C)c1nccn1C1CN(C(=O)c2ccc3[nH]ccc3c2)C1	580 s
CCc1ccc(NC(=O)N2CC(n3cnnc3C3CCOCC3)C2)cc1	599 s
COc1ccc(N2CCCCn3c2nc2c3c(=O)n(C)c(=O)n2C)cc1	759 s
CCOc1ccccc1-c1nc(-c2cn(Cc3ccc(F)cc3)nn2)no1	1020 s
O=C1C2N=NN(Cc3nc(-c4ccc5c(c4)OCO5)no3)C2C(=O)N1c1ccccc1 (centres undefined)	893 s
CCc1ccc(C(=O)N2CCC3(CC2)N=C(c2ccc(C)cc2)NO3)cc1	933 s
COCCn1cc2c3c(cccc31)CN(C(=O)Nc1ccccc1C(F)(F)F)CC2	981 s
CCCn1c(=O)c(C)nc2cc(-c3noc(COc4ccc(F)cc4)n3)ccc21	1060 s
CCc1cccc(C)c1NC(=O)C1CCN(S(=O)(=O)c2ccc3c(c2)NC(=O)CO3)CC1	818 s
CCOc1ccccc1NC(=O)CN1C(=O)CC(c2cccs2)=Nc2ccccc21	1050 s
O=C(NCc1cccs1)C1CCN(c2nc3ccc(Cl)cc3[nH]2)CC1	644 s
CCN(C(=O)Nc1ccccc1[N+](=O)[O-])c1nc(-c2ccc(C)cc2)cs1	1410 s
Cc1ccc(S(=O)(=O)N2C[C@@H](F)C[C@H]2C(=O)N2CCc3ccccc3C2)cc1Cl	1020 s

Compound	RP-LC retention time
C=CCn1c(=O)c2c(nc3n2CCCCN3c2ccc(OCC)cc2)n(C)c1=O	917 s
Cc1cc(C)cc(N2C=C(C(=O)N3CCOCC3)S(=O)(=O)c3ccccc32)c1	826 s
Cc1cc(S(=O)(=O)[C@H]2CS(=O)(=O)C[C@@H]2N2CCN(c3cccc(Cl)c3)CC2)ccc1F	1090 s
COCCc1noc(-c2ccc(=O)n(CC(=O)Nc3ccccc3)c2)n1	695 s
Cc1nn(C)cc1CN1C[C@@H]2C(=O)N(Cc3ccc4c(c3)OCO4)C(=O)[C@@H]2C1	601 s
COc1cc(NC(=O)N2CCN(Cc3ccccc3)c3ncccc32)cc(OC)c1OC	665 s
CNC(=O)[C@@H]1C[C@@H](O)CN1C1CCN(C(=O)c2cc(C)oc2C)CC1	613 s
Cc1ccc(-c2nc(NC(=O)c3cc4ccccc4o3)sc2C)cc1	1220 s
O=C(c1ccccc1F)N1CCC(COCc2ccccc2)CC1	945 s
CCNC(=O)Nc1ccc(OCC(=O)NCc2cc(OC)cc(OC)c2)nc1	691 s
CCc1cccc(NS(=O)(=O)c2cc(-c3c(CC)noc3NC(C)=O)ccc2OC)c1	807 s
CC(C)Cc1nnc(NC(=O)C2CCN(C(=O)c3ccccc3)CC2)s1	750 s
CCN1C(=O)c2cccc3c(S(=O)(=O)Nc4cccc(C)n4)ccc1c23	635 s
CCOC(=O)N1CCN(S(=O)(=O)c2cn(C)nc2C)CC1	644 s
CC(NC(=O)c1ccsc1)C(=O)Nc1nc2ccccc2[nH]1 (centres undefined)	609 s
CCCNC(=O)CCc1nc2ccccc2n(CC(=O)Nc2cccc(CC)c2)c1=O	845 s
CC(C)n1c(=O)c(Nc2cccc(C(F)(F)F)c2)nc2ccncc21	772 s
COc1ccc2c(c1)C1(CCN(C(=O)NCCc3ccccc3)C1)C(=O)N2C (centres undefined)	757 s
O=C(Nc1ccc(N2CCCN(C(=O)C3CC3)CC2)cc1)c1ccc(=O)[nH]c1	595 s

Second part, the molecule after the results:

RP-LC retention time	Compound
1100 s	O=C1COc2ccccc2N1Cc1nc(-c2cccc(C(F)(F)F)c2)no1
667 s	COc1ccc(NC(=O)Cn2cc(C(=O)N3CCCC3)c(=O)c3ccc(C)nc32)cc1
542 s	O=C(Cn1ncccc1=O)NCc1ccco1
638 s	CSc1ccc(CNC(=O)CN2CCc3[nH]c4c(C)c(C)ccc4c(=O)c3C2)cc1
869 s	CC(C)(C)c1ccc(S(=O)(=O)N2CCC(C(=O)NCc3cscn3)CC2)cc1
984 s	O=C(Nc1cnc(N2CCCCC2)nc1)c1cc(F)cc(F)c1
553 s	O=C1CCC2(C(=O)NCCN3CCOCC3)CCCC=C2N1c1ccccc1 (centres undefined)
876 s	COc1cc(NC(=O)c2noc3c2CCCC3)cc(OC)c1OC
629 s	COc1cc(NC(=O)NC2CCN(c3cc(N4CCOCC4)cnn3)C2)cc(OC)c1 (centres undefined)
635 s	CC(NC(=O)c1ccc2nc(-c3ccc(Cl)cc3)cn2c1)c1ccccn1 (centres undefined)
834 s	CC(C)C(=O)NC(C)c1nc(-c2ccccc2Cl)no1 (centres undefined)
588 s	COc1ccc(-c2cn3c(CC(=O)NCc4ccc(N(C)C)cc4)csc3n2)cc1OC
952 s	O=C(NC1CCCCC1)c1nnc(-c2ccc(S(=O)(=O)N3CCCC3)cc2)o1
866 s	COc1cccc(-c2cn3ccn(-c4ccc(Br)cc4)c(=O)c3n2)c1
802 s	CCN1CCCC(OC(=O)C(c2ccccc2)c2ccccc2)C1 (centres undefined)
814 s	O=C(C1=CN(c2cccc(Cl)c2)c2ccccc2S1(=O)=O)N1CCCC1
622 s	NC(=O)C1CCN(S(=O)(=O)c2ccc(N3C(=O)CCS3(=O)=O)cc2)CC1
661 s	CC(=O)Nc1ccc2c(c1)CN(C(=O)c1ccc(F)cc1F)C(C(=O)N(C)C)C2 (centres undefined)
715 s	COC(=O)N1CCc2ccccc2C1C(=O)NCc1ccco1 (centres undefined)
922 s	CCc1cccc(NC(=O)COc2cc(C)nc(N3CCN(c4ccccc4)CC3)n2)c1
1110 s	CCNC(=O)CCc1nc2ccccc2n(CC(=O)NCc2cccc(OC)c2OC)c1=O
582 s	Cc1cc2ncn(Cc3ccccc3F)c2cc1C
794 s	CCOC(=O)c1sc2ccccc2c1S(=O)(=O)N1CCN(c2ccccn2)CC1
687 s	CCc1noc(-c2ccnc(-n3ncc(C(=O)NC4CCCC4)c3C)c2)n1
726 s	COC(=O)c1ccc(NC(=O)N2CCC3(CC2)NC(=O)c2ccccc2O3)cc1
1200 s	Cc1cc(-c2csc(S(=O)(=O)N3CCN(C(c4ccccc4)c4ccccc4)CC3)c2)on1

RP-LC retention time	Compound
722 s	O=C(c1nccc2ccccc12)N1CCC(OCC2CC2)C1 (centres undefined)
729 s	O=C(Nc1nccs1)c1ccc(Cl)c(S(=O)(=O)N2CCOCC2)c1
879 s	Oc1ccccc1-c1nc2ccc(Cl)cn2c1Nc1ccc2c(c1)OCCO2
1050 s	CC(C)COc1ccc(C(=O)N(Cc2ccc(Br)o2)C2CCS(=O)(=O)C2)cc1 (centres undefined)
610 s	CCc1nc(N)n(CC(=O)Nc2cccc(C)c2)c(=O)c1C
1020 s	CCOc1ccc(-n2nc(CO)c(C(=O)NC3CCCC3)n2)cc1
877 s	CCOc1ccc(NC(=O)c2cc(C(C)C)n(C3CCS(=O)(=O)C3)n2)cc1 (centres undefined)
651 s	CNC(=O)c1nn(-c2ccc(F)c(F)c2)c(OC)cc1=O
743 s	O=C(c1ccccn1)N1CC(c2nc(-c3ccccc3)no2)C2(CCOCC2)C1 (centres undefined)
658 s	Cc1cc(C)cc(C(=O)N2C[C@@H]3C[C@H](NC(=O)c4cccnc4)[C@H]2C3)c1
833 s	Cn1nc(-c2nnc(-c3ccc(F)cc3)o2)c2c1CCN(C(=O)Nc1ccccc1)C2
581 s	COc1ccc(NC(=O)NCC2(CO)CC2)cc1OC
584 s	CCCn1cnc2ccc(-c3noc(C(C)NC(=O)c4ccco4)n3)cc21 (centres undefined)
853 s	CCCN(C(=O)c1cccc(NC(=O)[C@H]2[C@@H]3C[C@@H]4[C@H]2C(=O)O[C@@H]4C3)c1)c1ccccc1F
572 s	CCC(=O)N1CCc2cc(N3CC(C(=O)N4CCCN(C)CC4)CC3=O)ccc21 (centres undefined)
626 s	CCCCn1c(CN2CCCC2)nc2cc(NC(=O)c3ccco3)ccc21
639 s	Cc1cc(N2CCN(C(=O)c3ccc(Cl)cc3)CC2)nc(N2CCOCC2)n1
892 s	Cc1nnc2ccc(S(=O)(=O)N(Cc3ccc(F)cc3)c3ccc(F)cc3)cn12
1250 s	Cc1ccc(-c2nc(-c3ccc(-c4noc(CNC(=O)c5ccccc5)n4)cc3)cs2)s1
1040 s	CCOc1ccc(Cc2nc(-c3ccc4oc(C)nc4c3)no2)cc1OCC
960 s	O=C(NCc1ccccc1)c1nc(Cn2c(=O)oc3ccc(Cl)cc32)no1
701 s	COc1ccc(-c2nc3ccccn3c2Nc2ccc(C)cc2)cc1
1050 s	Cc1ccc(C)c(Cn2nc3c(S(=O)(=O)N4CCCCCC4)cccn3c2=O)c1
636 s	O=C(Cc1ccc(Cl)cc1)N1CCN(c2cc(-c3cccnc3)[nH]n2)CC1
769 s	O=C([C@H]1C[C@@H](F)CN1S(=O)(=O)c1cccc(C(F)(F)F)c1)N1CCOCC1
